This assay has as its target human DPP1 enzyme (Homo sapiens, UniProt P53634). The experiment in a line: Human DPP1 Enzyme IC50 Assay. In kind it is biochemical. On the set-up: was first proteolytically processed into its mature form using recombinant human cathepsin L; purchased R&D Systems. The conditions noted are these: activated recombinant human DPP1, 400 μM H-Gly-Arg-AMC, 10 minutes pre-incubation at 37° C., pH 6.0; average of n runs; read-out: Avg. IC50 (Human DPP1 enzyme IC50 value ranges). The protocol: Example 97. Human DPP1 Enzyme IC50 Assay
Recombinant human DPP1 enzyme (R&D Systems; Minneapolis, MN) was first proteolytically processed into its mature form using recombinant human cathepsin L (R&D Systems) in a buffer consisting of 20 mM citric acid pH 4.5, 150 mM NaCl, 1 mM EDTA and 10 mM DTT. Test articles were applied to activated human DPP1 enzyme in Assay Buffer (25 mM MES pH 6.0, 50 mM NaCl, 5 mM DTT) in a total reaction volume of 125 μL. 25 μL of compound in Assay Buffer plus 5% DMSO was first added to 50 μL of activated human DPP1 enzyme at a concentration of 1 ng/μL and allowed to pre-incubate for 10 minutes at 37° C. after which 50 μL of 1000 μM H-Gly-Arg-AMC substrate (Bachem; St. Torrance, CA) was added, giving final substrate concentration of 400 μM and a final DMSO concentration of 1%. Substrate cleavage was measured for 90 minutes at 37° C., with fluorescence at Excitation/Emission 350/450 nm measured every 5 minutes. DPP1 concentration was interpolated based on its activity relative to a standard curve of activated human recombinant DPP1 enzyme. IC50 values for each compound were calculated via the XLFit (IDBS Version 5.3.1.3) Add-On to Microsoft Excel using the four parameter fit equation y={A+[(B−A)]/[1+((C/x)^D)]}, which appears as equation number 205 (4 Parameter Logistic Model or Sigmoidal Dose-Response Model) in XLFit. Default constraints were used for each Parameter. IC50 was defined as the compound concentration at which 50% of enzyme activity was inhibited when compared to the no-compound control.

Chain of human DPP1 enzyme (P53634 25-134 limits assumed): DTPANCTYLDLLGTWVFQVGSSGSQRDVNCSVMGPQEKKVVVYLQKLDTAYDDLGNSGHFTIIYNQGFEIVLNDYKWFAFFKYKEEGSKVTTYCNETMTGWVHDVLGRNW
Chain of human DPP1 enzyme (P53634 231-394 limits assumed): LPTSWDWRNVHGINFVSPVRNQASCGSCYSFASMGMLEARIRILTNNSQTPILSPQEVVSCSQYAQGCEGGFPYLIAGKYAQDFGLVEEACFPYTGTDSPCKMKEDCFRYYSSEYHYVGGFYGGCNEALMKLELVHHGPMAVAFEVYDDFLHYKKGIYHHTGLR
Chain of human DPP1 enzyme (P53634 395-463 limits assumed): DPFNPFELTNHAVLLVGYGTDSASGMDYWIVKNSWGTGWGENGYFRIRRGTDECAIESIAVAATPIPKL

For the molecule `N#Cc1ccc2c(c1)COc1cc(C[C@@H](C#N)NC(=O)[C@@H]3CNCCCCO3)c(F)cc1-2` (single isomer, unassigned) [Compound B8], the IC50 was more than 15 nM.

Take `N#Cc1ccc(C23CCC(C[C@@H](C#N)NC(=O)[C@@H]4CNCCCO4)(CC2)CC3)cc1` [Compound 1]: the IC50 is more than 15 nM.

Take `N#Cc1ccc(C23CC(C[C@@H](C#N)NC(=O)[C@@H]4CNCCCO4)(C2)C3)cc1` [Compound 2]: the IC50 is more than 15 nM.

On to `N#C[C@H](Cc1ccc(C23CC(C#N)(C2)C3)cc1)NC(=O)[C@@H]1CNCCCO1` [Compound 3], for which the IC50 was more than 15 nM.

`N#C[C@H](Cc1ccc(-c2ccnc3nc(O)oc23)cc1)NC(=O)[C@@H]1CNCCCO1` [Compound A13, (2S)—N-[(1S)-1-cyano-2-(4-{2-hydroxy-[1,3]oxazolo[4,5-b]pyridin-7-yl}phenyl)ethyl]-1,4-oxazepane-2-carboxamide]: the IC50 was more than 15 nM.

As to `N#C[C@H](Cc1ccc(-c2cc3c(O)ccnn3c2)cc1)NC(=O)[C@@H]1CNCCCO1` [Compound A15, (S)—N—((S)-1-cyano-2-(4-(4-hydroxypyrrolo[1,2-b]pyridazin-6-yl)phenyl)ethyl)-1,4-oxazepane-2-carboxamide], the IC50 is more than 15 nM.

With `N#C[C@H](Cc1ccc(-c2cnc3[nH]ccc3n2)cc1)NC(=O)[C@@H]1CNCCCO1` [Compound A16, (2S)—N-[(1S)-1-cyano-2-(4-{5H-pyrrolo[2,3-b]pyrazin-2-yl}phenyl)ethyl]-1,4-oxazepane-2-carboxamide], the IC50 is more than 15 nM.

Consider `N#C[C@H](Cc1ccc(-c2cncc3[nH]c(=O)[nH]c23)cc1)NC(=O)[C@@H]1CNCCCO1` [Compound A17, (2S)—N-[(1S)-1-cyano-2-(4-{2-oxo-1H,3H-imidazo[4,5-c]pyridin-7-yl}phenyl)ethyl]-1,4-oxazepane-2-carboxamide], for which the IC50 was more than 15 nM.

Regarding `CO[C@H]1CCO[C@H](C(=O)N[C@H](C#N)Cc2cnc(-c3ccc4c(F)nn(C)c4c3)s2)CNC1` [Compound A170], the IC50 lay within 5 to 15 nM.

Regarding `Cn1nc(F)c2ccc(-c3ncc(C[C@@H](C#N)NC(=O)[C@@H]4CNCC[C@@H](F)CO4)s3)cc21` [Compound A172], the 50% inhibitory concentration (IC50) is more than 15 nM.

Take `CN1Cc2cc(F)ccc2-c2ccc(C[C@@H](C#N)NC(=O)[C@@H]3CNCCCO3)cc2C1=O` [Compound B3, (2S)—N-[(1S)-1-cyano-2-{13-fluoro-9-methyl-8-oxo-9-azatricyclo[9.4.0.0^{2,7}1]pentadeca-1(11),2,4,6,12,14-hexaen-5-yl}ethyl]-1,4-oxazepane-2-carboxamide]: the half-inhibitory concentration (IC50) is more than 15 nM.

As to `Cn1c(=O)oc2ccc3c(c21)COc1cc(C[C@H](C#N)NC(=O)[C@@H]2CNCCCO2)c(F)cc1-3` [Compound C2-B], the IC50 was more than 15 nM.

As to `CN1CCC2(CCc3ccc4c(c32)COc2cc(CC(C#N)NC(=O)[C@@H]3CNCCCO3)c(F)cc2-4)CC1` (stereo partly drawn) [Compound C4, (2S)—N-(1-cyano-2-{8-fluoro-1′-methyl-2,4-dihydro-1H-spiro[indeno[4,5-c]chromene-3,4′-piperidin]-7-yl}ethyl)-1,4-oxazepane-2-carboxamide], the IC50 was more than 15 nM.

With `CO[C@H]1CCO[C@H](C(=O)N[C@H](C#N)Cc2ccc(-c3ccc4cnn(C5CCN(C)CC5)c4c3)cc2F)CNC1` [Compound H1], the IC50 was less than 5 nM.

For the molecule `CO[C@H]1CCO[C@H](C(=O)N[C@H](C#N)Cc2ccc(-c3ccc4cnn(C5CCN(C6COC6)CC5)c4c3)cc2F)CNC1` [Compound H2], the IC50 was in the range of 5 to 15 nM.

What is called IC50 is the concentration that inhibits the measured activity by half.

Values taken from patent US20260008760A1, “DIPEPTIDYL PEPTIDASE 1 INHIBITORS AND USES THEREOF” (Insmed Incorporated, priority 2024, published 2026).
